Legend:
DLBCL cell lines = conditions: multiple DLBCL cell lines; cited from earlier work
[1] = test system: TNFa, IL-6, IL-10 and CXCL10 production in TMD8, OCI-Ly3 and HBL1 DLBCL cell lines; conditions: cited from earlier work
[2] = test system: models which harbor activating MyD88 mutations; conditions: in vivo, multiple models harboring activating MyD88 mutations; cited from earlier work
[3] = test system: eIF4E phosphorylation at serine 209; conditions: in vitro, tumor cell lines, dose-dependent; read-out: IC50 for reduction of eIF4E phosphorylation at serine 209; cited from earlier work
TNFa mRNA = conditions: cited from earlier work
[4] = in vivo; cited from earlier work
mice = conditions: Moy et al. (2017); cited from earlier work
hyperglycemic mice = conditions: cited from earlier work
Candida Pkc1 = target: T1, Candida Pkc1 (Candida albicans, UniProt P43057); conditions: cited from earlier work
T1 sequence (P43057 1-1097): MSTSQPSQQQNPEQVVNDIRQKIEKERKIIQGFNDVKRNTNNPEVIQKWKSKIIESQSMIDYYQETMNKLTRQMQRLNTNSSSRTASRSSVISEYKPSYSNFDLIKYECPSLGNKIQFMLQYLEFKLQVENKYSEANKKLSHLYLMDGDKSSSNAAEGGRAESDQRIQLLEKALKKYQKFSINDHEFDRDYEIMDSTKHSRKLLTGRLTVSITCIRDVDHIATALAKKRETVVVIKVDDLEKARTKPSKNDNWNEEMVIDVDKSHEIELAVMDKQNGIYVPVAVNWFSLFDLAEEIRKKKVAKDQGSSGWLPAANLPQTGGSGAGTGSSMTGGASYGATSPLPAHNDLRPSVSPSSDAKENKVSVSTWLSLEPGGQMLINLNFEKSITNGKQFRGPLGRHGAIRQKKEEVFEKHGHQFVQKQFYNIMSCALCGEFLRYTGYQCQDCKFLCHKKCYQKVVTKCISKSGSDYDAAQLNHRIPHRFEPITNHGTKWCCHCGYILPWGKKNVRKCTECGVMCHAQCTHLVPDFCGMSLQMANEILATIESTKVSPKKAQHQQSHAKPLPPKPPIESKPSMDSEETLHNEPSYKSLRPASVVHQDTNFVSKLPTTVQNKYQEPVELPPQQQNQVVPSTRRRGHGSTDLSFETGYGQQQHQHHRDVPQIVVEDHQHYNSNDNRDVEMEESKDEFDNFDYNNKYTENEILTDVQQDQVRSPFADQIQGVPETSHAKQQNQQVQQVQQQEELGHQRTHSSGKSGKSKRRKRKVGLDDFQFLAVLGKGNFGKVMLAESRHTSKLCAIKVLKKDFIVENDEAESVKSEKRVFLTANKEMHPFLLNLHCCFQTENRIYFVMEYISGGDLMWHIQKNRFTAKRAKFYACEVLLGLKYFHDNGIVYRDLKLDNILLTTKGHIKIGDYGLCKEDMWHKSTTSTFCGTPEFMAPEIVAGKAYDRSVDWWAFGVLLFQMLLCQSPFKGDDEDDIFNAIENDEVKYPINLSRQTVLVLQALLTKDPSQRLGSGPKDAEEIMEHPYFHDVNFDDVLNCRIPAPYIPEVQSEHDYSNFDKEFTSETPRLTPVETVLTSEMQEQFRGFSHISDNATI

[5] = local administration; cited from earlier work
hindpaw = conditions: local co-injection with IL-6 into the hindpaw, previous study; cited from earlier work
female ICR mice = experiment: dural IL-6 facial hypersensitivity and hyperalgesic priming model (von Frey facial withdrawal threshold); format: in vivo; conditions: for hyperalgesic priming: response to second dural stimulus SIF pH 7.0: 25 μg dural co-injection with 0.1 ng IL-6, pH 7.0 given after return to baseline; for acute facial mechanical hypersensitivity after dural IL-6: 25 μg dural co-injection with 0.1 ng IL-6, versus IL-6 alone
Experimental: Mice received a dural injection of interleukin-6 in the absence or presence of the protein synthesis inhibitor anisomycin or the translation initiation inhibitor 4EGI-1 and were tested for facial hypersensitivity. Upon returning to baseline, mice were given a second, non-noxious dural injection of pH 7.0 to test for priming. Additionally, eIF4ES209A mice lacking phosphorylation of mRNA cap-binding protein eIF4E received dural interleukin-6 or were subjected to repeated restraint stress and then tested for facial hypersensitivity. After returning to baseline, mice were given either dural pH 7.0 or a systemic sub-threshold dose of the nitric oxide donor sodium nitroprusside and tested for priming.
First female mice were administered either 0.1 ng of IL-6, 25 μg of anisomycin (a general protein synthesis inhibitor), or a co-injection of both onto the dura to induce mechanical facial allodynia that persisted for more than 24 h and resolved by 72 h (FIG. 2). Upon returning to baseline, a second stimulus, SIF (pH 7.0), was administered onto the dura to reveal the presence of hyperalgesic priming from the initial IL-6 stimulus. […] This hypersensitivity persisted for more than 5 h.
Similar to the experiments used to generate FIG. 2, 0.1 ng of IL-6, 25 μg of 4EGI-1, a compound that mimics the activity of 4E-BP1, or a co-injection of both was administered onto the dura of female mice (FIG. 3). The resulting mechanical allodynia induced by IL-6 persisted for more than 24 h and resolved after 72 h. Upon returning to baseline, mice were exposed to a dural injection of low pH. […] Thus, assembly of the eIF4F complex locally in the dura appears to be critical to the development of long-lasting mechanical hypersensitivity following repeated stress.
Human recombinant IL-6 protein (R&D Systems) stock solution (100 mg/mL) was prepared in sterile 0.1% BSA and diluted to 1 ng/mL in synthetic interstitial fluid (SIF) consisting of 135 mM NaCl, 5 mM KCl, 10 mM HEPES, 2 mM CaCl2, 10 mM glucose, 1 mM MgCl2 (pH 7.4, 310 mOsm). Anisomycin (Tocris) stock solution (135 mg/mL) and 4EGI-1 (Enzo) stock solution (20 mg/mL) were both prepared in sterile 0.1% BSA and diluted to 5 mg/mL in SIF. Sodium nitroprusside (SNP) (Sigma-Aldrich) was prepared in sterile phosphate buffered saline (PBS) at the time of use and was kept away from light. For dural injections, mice received […] injections of either IL-6, anisomycin, 4EGI-1, SIF, or a combination of IL-6 and anisomycin or IL-6 and 4EGI-1 for acute testing. For testing the ability of mice to prime to the initial stimulus in these dural injection experiments, […] of SIF pH 7.0 were administered onto the dura. […]

Jurkat cells = conditions: cited from earlier work
A549 cells = conditions: cited from earlier work

Structure (SMILES): Cc1cc(Nc2cc(N)ncn2)c(=O)n2c1C(=O)NC21CCCCC1 [eFT508]
- anti-proliferative activity (DLBCL cell lines): anti-proliferative activity
- production of pro-inflammatory cytokines including TNFa, IL-6, IL-10 and CXCL10 [1]: dose-dependent decreases
- anti-tumor activity [2]: significant anti-tumor activity
- IC50 [3]: 2 to 16 nM
- decrease in TNFa mRNA half-life (TNFa mRNA): 2 fold
- oral bioavailability [4]: orally bioavailable

Structure (SMILES): CC(=O)C1=C(O)C=C2Oc3c(C(N)=O)c(O)cc(O)c3[C@]2(C)C1=O [Cercosporamide]
- cold hypersensitivity induced by peripheral nerve injury (mice): reduced
- plasma glucose (hyperglycemic mice): lowering of plasma glucose
- oral bioavailability [4]: orally bioavailable
- IC50 (Candida Pkc1): 25 nM

Structure (SMILES): COc1ccc(C[C@H]2NC[C@H](O)[C@H]2OC(C)=O)cc1 [anisomycin]
- mechanical hypersensitivity and injury-induced changes in nociceptor excitability [5]: reduces
- acute mechanical hypersensitivity after IL-6 into the hindpaw (hindpaw): prevented
- hyperalgesic priming: response to second dural stimulus SIF pH 7.0 (female ICR mice): did not respond to the low pH
- acute facial mechanical hypersensitivity after dural IL-6 (female ICR mice): only minor differences

Structure (SMILES): O=C(O)C(Cc1ccccc1[N+](=O)[O-])=NNc1nc(-c2ccc(Cl)c(Cl)c2)cs1 [4EGI-1]
- activity against Jurkat cells (Jurkat cells): exhibits activity
- mechanical hypersensitivity and injury-induced changes in nociceptor excitability [5]: reduces
- activity against A549 cells (A549 cells): exhibits activity
- hyperalgesic priming: response to second dural stimulus SIF pH 7.0 (female ICR mice): robustly blocked
- acute facial mechanical hypersensitivity after dural IL-6 (female ICR mice): partially attenuated

— patent US12329756B2, “Regulation of eIF4E activity for migraine therapy” (Board of Regents, The University of Texas System, priority 2020, dated 2025)
